Results as given in US10564168B2, “Method for treating male infertility based on NOX5 protein levels in sperm” (priority 2013, dated 2020).

Tests used:
human spermatozoa [1] = test: Superoxide assay, luminol-based Diogenes chemiluminescence, whole spermatozoa; assay type: cell-based
Excerpt: (§1) Human semen samples were obtained from patient donors as a part of their clinical evaluation for fertility and reproductive health status. Portions of the samples not required for clinical analyses were de-identified and made available for the research protocols described. Under these conditions, the Institutional Review Board determined that the study is exempt from requirements for protocol approval and informed consent. Semen was collected by masturbation into sterile plastic containers and allowed to liquefy for at least 30 min before being processed. The samples were centrifuged (500 g, 15 min) to separate the seminal plasma from spermatozoa, and the pellet washed twice in phosphate-buffered normal saline pH 7 with 10 mM glucose (PBS-G). The spermatozoa were then counted in a hemocytometer chamber, resuspended in PBS-G at 10^9/ml, and used for superoxide assays. Sperm samples containing leukocytes detected by microscopic examination were excluded from the study. For selected experiments, motile spermatozoa were collected using the swim-up procedure (Vijayakumar et al. (1986) Arch. Androl. 17, 223-230; Parrish and Foote (1987) J. Androl. 8, 259-266). Briefly, the spermatozoa were sedimented by centrifugation (500 g, 15 min) and the tube was then incubated upright for 60 min at 37° C. Motile spermatozoa that progressed from the pellet into the supernatant (swim-up fraction) were collected by aspiration and counted.
(§2) Superoxide generation was measured using a luminol-based chemiluminescence assay (Diogenes reagent, National Diagnostics, Atlanta, Ga.). […] Spermatozoa were suspended at 10^9/ml in PBS-G. A 100 μl aliquot of the Diogenes reagent was mixed with 2×10^7 spermatozoa and incubated at 37° C. for 2-4 minutes. Superoxide generation was measured at baseline and after stimulation with ionomycin (1 μM), phorbol myristate acetate (PMA, 1 μg/ml), or H2O2 (100 μM and other concentrations as indicated). Chemiluminescence was measured every 30-60 sec for up to 10-15 min using a Clarity™ BioTek luminometer and an integration time of 5 sec.
Spermatozoa were pre-incubated for 5 min prior to the superoxide assay with 400 U/ml superoxide dismutase (SOD), 10 μM diphenylene iodonium (DPI), or 100 μM 1,2-Bis (2-aminophenoxy) ethane-N,N,N′,N′-tetraacetic acid (BAPTA). […] In some experiments, cells were pre-exposed to the NOX inhibitor 2-(2-chlorophenyl)-4-methyl-5-(pyridin-2-ylmethyl)-1H-pyrazolo[4,3-c]pyridine-3,6(2H,5H)-dione (GKT136901, 0.5 μM and other concentrations as indicated) for 10 min before exposure to either H2O2 or PMA.

human spermatozoa [2] = test: Swim-up procedure, sperm motility; assay type: cell-based; details: 100 μM H2O2, 10 min
Excerpt: as §1

c-Abl = test: Phospho-c-Abl immunoblot and immunostaining of spermatozoa; assay type: cell-based, human; details: 100 μM H2O2, 10 min
Description: Spermatozoa resuspended in lysis buffer A (20 mM HEPES, pH 7.9; 350 mM NaCl; 0.5 mM EDTA; 0.5 mM EGTA; 1 mM MgCl2; 10% glycerol (v/v); 1% Nonidet P-40 (v/v); 10 mM NaF; 0.1 mM Na3VO4 [orthovanadate], 8 mM β-glycerophosphate; phosphatase inhibitor cocktail I and II [Sigma]; and protease inhibitor cocktail [Roche, Mannheim, Germany]) were sonicated 3 times for 5 sec each (20 watts). Lysates were cleared by centrifugation (10,000 g, 15 min). Aliquots containing 60-200 μg of protein were separated on 4-20% SDS polyacrylamide gradient gels and transferred to polyvinylidene difluoride (PVDF) membranes. […]
For immunohistological analyses, a drop of spermatozoa suspended in PBS-G was placed on a poly-L-lysine-coated glass slide, fixed in 4% (w/v) paraformaldehyde and permeabilized with 0.1% Triton X-100 (v/v) for 15 min at 4° C. […] Protein expression was visualized on a fluorescence microscope (Zeiss, Thornwood, N.Y.). […]

human spermatozoa [3] = test: Live cell confocal imaging with fluo4-AM and DHE; assay type: cell-based; details: H2O2, 10 min
Description: Spermatozoa suspended in PBS-G were plated on poly-L-lysine-coated glass coverslips (2×10^5 cells/ml) in PBS-G and loaded with 6 μM fluo4-AM and 300 nM dihydroethidine (DHE) (Molecular Probes, Carlsbad, Calif.) 10 min before imaging. Ca2+ influx and superoxide production were recorded using a confocal microscope (LSM 510; Carl Zeiss MicroImaging, Inc., Thornwood, N.Y.) with a 63×/1.4 NA plan-apochromat objective. Fluo-4 and DHE fluorescence emissions were excited with dual laser at 488/543 nm attenuated to avoid photobleaching and saturation. Detection was through a 545 nm long-pass dichroic mirror and a band-pass filter at 500-530 for fluo-4 and LP560 for DHE.

K562/NOX5 cells = test: Superoxide production by K562/NOX5 cells; assay type: cell-based, human; details: 1 mM ZnCl2, K562/NOX5 cells
Description: as §2
Human leukemia cells stably transfected with an empty vector (K562 cells) or a vector encoding for NOX5 (K562/NOX5) were grown in RPMI medium supplemented with 10% (v/v) fetal bovine serum, plus 100 U/ml penicillin and 100 μg/ml streptomycin and the appropriate selection antibiotic. Cells in the logarithmic phase of growth were transfected with a mix of HV1 siRNA (Sigma) or with scrambled siRNA (Sigma) using the Neon system (Invitrogen, Carlsbad, Calif.) according to the manufacturer's recommendations. […]

| SMILES | dose dependence of induction of superoxide generation (human spermatozoa [1]; 1 to 500 μM H2O2) | H2O2-stimulated superoxide production by hypermotile spermatozoa of the upper fraction after spontaneous swim-up (human spermatozoa [1]; compared with pre-swim-up cells) | onset of superoxide burst after peroxide addition (human spermatozoa [1]; human spermatozoa) [min] | time to maximal superoxide activity levels (human spermatozoa [1]; human spermatozoa, varying among donors) [min] | induction of superoxide production by spermatozoa (human spermatozoa [1]; ionomycin 1 μM, PMA 1 μg/ml or H2O2 100 μM, 10 min) | effect on number of sperm in the swim-up fraction (human spermatozoa [2]) | phosphorylation of c-Abl (c-Abl) | cytosolic Ca2+ levels and superoxide fluorescence (human spermatozoa [3]) | sensitivity of superoxide production induced by H2O2, PMA, or ionomycin (human spermatozoa [1]; 1 mM ZnCl2, 5 min pre-incubation, human spermatozoa) | decrease of superoxide production stimulated by ionomycin, PMA, or H2O2 (K562/NOX5 cells) |
| --- | --- | --- | --- | --- | --- | --- | --- | --- | --- | --- |
| OO [H2O2] | dose-dependent | did not produce superoxide | 1 to 2 | 5 to 10 | induced a marked burst in superoxide production | increase in the number of sperm in the swim-up fraction | induced the phosphorylation of c-Abl on tyrosine 245 | increases in cytosolic Ca2+ levels | – | – |
| [Cl-].[Cl-].[Zn+2] [ZnCl2] | – | – | – | – | – | – | – | – | Zn2+-sensitive | 50-70% |
